Laboratory results reported in patent US20260070887A1 (Shenzhen Zhongge Biological Technology Co., Ltd., priority 2022, published 2026).
Like-named read-outs stand apart in the source and are kept apart here.

Experiments:
KIF18A = KIF18A (Homo sapiens (Human), UniProt Q8NI77); experiment: KIF18A ATPase activity under tubulin stimulation (ADP-Glo assay); assay type: biochemical; conditions: KIF18A 30 nM, ATP 150 μM, pig microtubules
OVCAR-3 cells = experiment: OVCAR-3 cell proliferation (Cell Titer-Glo, 10 days); assay type: cell-based, human
Method in brief: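 IC50 was fitted by nonlinear regression of percent inhibition versus the 0.1% DMSO control. Luminescence was read with Cell Titer-Glo after 10 days of co-culture of logarithmic-phase cells (400/well) with compound at 0.12 nM–10 μM final, in medium with 20% fetal bovine serum and 0.01 mg/mL insulin.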

Sequence of KIF18A (Q8NI77 whole entry): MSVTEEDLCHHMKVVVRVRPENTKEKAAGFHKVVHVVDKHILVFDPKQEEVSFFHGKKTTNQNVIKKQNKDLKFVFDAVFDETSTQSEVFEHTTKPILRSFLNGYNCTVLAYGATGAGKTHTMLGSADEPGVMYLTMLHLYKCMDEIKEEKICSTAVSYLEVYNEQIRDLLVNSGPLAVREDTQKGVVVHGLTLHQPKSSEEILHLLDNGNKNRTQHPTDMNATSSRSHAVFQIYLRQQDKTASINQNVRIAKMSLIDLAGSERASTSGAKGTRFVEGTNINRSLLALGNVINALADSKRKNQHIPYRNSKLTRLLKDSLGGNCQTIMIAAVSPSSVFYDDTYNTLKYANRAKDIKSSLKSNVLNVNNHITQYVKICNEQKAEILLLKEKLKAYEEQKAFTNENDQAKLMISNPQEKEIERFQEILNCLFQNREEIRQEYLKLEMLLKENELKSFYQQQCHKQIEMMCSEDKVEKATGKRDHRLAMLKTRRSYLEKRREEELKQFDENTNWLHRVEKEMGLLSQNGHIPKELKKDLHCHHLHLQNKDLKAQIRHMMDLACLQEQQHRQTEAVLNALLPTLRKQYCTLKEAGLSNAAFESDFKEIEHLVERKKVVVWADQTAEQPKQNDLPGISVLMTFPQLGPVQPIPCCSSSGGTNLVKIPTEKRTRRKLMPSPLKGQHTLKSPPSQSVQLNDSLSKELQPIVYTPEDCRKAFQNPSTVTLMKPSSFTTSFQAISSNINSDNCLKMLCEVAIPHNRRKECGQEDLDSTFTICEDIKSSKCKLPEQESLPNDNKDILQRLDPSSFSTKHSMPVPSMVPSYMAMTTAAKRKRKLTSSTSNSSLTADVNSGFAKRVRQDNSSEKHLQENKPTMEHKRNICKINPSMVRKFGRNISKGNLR
Sequence of KIF18A (P02550 whole entry partner): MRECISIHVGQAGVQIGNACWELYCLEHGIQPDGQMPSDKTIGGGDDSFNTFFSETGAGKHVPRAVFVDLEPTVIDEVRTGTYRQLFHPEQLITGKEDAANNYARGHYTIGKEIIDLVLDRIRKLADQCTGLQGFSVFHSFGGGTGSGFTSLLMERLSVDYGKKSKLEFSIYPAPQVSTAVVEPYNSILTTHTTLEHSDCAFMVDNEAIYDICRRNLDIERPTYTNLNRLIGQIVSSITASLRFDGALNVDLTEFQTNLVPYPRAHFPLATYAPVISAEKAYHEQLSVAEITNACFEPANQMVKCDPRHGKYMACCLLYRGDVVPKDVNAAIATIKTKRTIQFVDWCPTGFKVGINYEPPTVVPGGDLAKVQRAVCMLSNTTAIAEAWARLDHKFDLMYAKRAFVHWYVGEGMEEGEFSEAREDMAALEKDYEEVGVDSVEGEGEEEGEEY
Sequence of KIF18A (P02554 whole entry partner): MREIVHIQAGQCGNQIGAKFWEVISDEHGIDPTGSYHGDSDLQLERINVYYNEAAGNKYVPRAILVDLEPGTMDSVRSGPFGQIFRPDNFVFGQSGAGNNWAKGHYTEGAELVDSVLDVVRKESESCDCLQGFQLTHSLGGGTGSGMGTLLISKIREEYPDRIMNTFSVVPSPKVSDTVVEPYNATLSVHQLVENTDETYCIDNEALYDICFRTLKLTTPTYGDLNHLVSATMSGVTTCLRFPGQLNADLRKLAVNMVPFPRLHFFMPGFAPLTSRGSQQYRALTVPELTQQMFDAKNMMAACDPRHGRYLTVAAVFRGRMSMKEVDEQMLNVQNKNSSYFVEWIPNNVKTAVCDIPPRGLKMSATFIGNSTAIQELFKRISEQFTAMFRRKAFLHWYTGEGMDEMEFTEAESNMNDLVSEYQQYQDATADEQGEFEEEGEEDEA

IC50 (KIF18A)	IC50 (OVCAR-3 cells; Homo sapiens, OVCAR-3, 240 h)	SMILES	IC50 (OVCAR-3 cells)
50 to 500 nM	500 to 5000 nM	CC1(C)Cn2c(cc3c(NC(=O)c4ccc(NS(=O)(=O)CCO)nc4N4CCC5(CC4)CC5)cccc32)CO1 [Example 453, N-(3,3-dimethyl-3,4-dihydro-1H-[1,4]oxazino[4,3-a]indol-9-yl)-6-((2-hydroxyethyl)sulfonamido)-2-(6-azaspiro[2.5]octan-6-yl)nicotinamide]	–
50 to 500 nM	≤ 50 nM	COc1ccc(NC(=O)c2ccc(NS(=O)(=O)CCO)cc2N2CCC(=C(F)F)CC2)c2cc3n(c12)CCC(F)(F)C3 [Example 477, N-(8,8-difluoro-4-methoxy-6,7,8,9-tetrahydropyridino[1,2-a]indol-1-yl)-2-(4-(difluoromethylene)piperidin-1-yl)-4-((2-hydroxyethyl)sulfonamido)benzamide]	–
50 to 500 nM	50 to 500 nM	COc1ccc(NC(=O)c2ccc(NS(=O)(=O)CCO)cc2N2CCC3(CC2)CC3)c2cc3n(c12)CCC(F)(F)C3OC (stereo not shown) [Example 479, N-(8,8-difluoro-4,9-dimethoxy-6,7,8,9-tetrahydropyridino[1,2-a]indol-1-yl)-4-((2-hydroxyethyl)sulfonamido)-2-(6-azaspiro[2.5]oct-6-yl)benzamide]	–
≤ 50 nM	≤ 50 nM	COc1ccc(NC(=O)c2ccc(NS(=O)(=O)CCO)cc2N2CCC3(CC2)CC3)c2cc3n(c12)CCC(F)(F)C3O (stereo not shown) [Example 482, N-(8,8-difluoro-9-hydroxy-4-methoxy-6,7,8,9-tetrahydropyridino[1,2-a]indol-1-yl)-4-((2-hydroxyethyl)sulfonamido)-2-(6-azaspiro[2.5]oct-6-yl)benzamide]	–
50 to 500 nM	≤ 50 nM	COc1ccc(NC(=O)c2ccc(NS(=O)(=O)CCO)cc2N2CCC(=C(F)F)CC2)c2nc3n(c12)CC(C)(C)OC3 [Example 489]	–
50 to 500 nM	50 to 500 nM	CC1(C)Cn2c(cc3c(NC(=O)c4ccc(NS(=O)(=O)CCO)cc4N4CCC(=C(F)F)CC4)ccc(F)c32)CO1 [Example 520, 2-(4-(difluoromethylene)piperidin-1-yl)-N-(6-fluoro-3,3-dimethyl-3,4-dihydro-1H-[1,4]oxazino[4,3-a]indol-9-yl)-4-((2-hydroxyethyl)sulfonamido)benzamide]	–
50 to 500 nM	50 to 500 nM	Cc1ccc(NC(=O)c2ccc(NS(=O)(=O)CCO)cc2N2CCC(=C(F)F)CC2)c2cc3n(c12)CC(C)(C)OC3 [Example 526]	–
50 to 500 nM	≤ 50 nM	CCNC(=O)c1ccc(NC(=O)c2ccc(NS(=O)(=O)CCO)cc2N2CCC3(CC2)CC3)c2cc3n(c12)CC(C)(C)OC3 [Example 527]	–
50 to 500 nM	≤ 50 nM	CCNC(=O)c1ccc(NC(=O)c2ccc(NS(=O)(=O)CCO)cc2N2CCC(=C(F)F)CC2)c2cc3n(c12)CC(C)(C)OC3 [Example 528]	–
50 to 500 nM	≤ 50 nM	Cn1cnc(-c2ccc(NC(=O)c3ccc(NS(=O)(=O)CCO)cc3N3CCC4(CC3)CC4)c3cc4n(c23)CC(C)(C)OC4)c1 [Example 529]	–
50 to 500 nM	50 to 500 nM	CC(C)Oc1ccc(NC(=O)c2ccc(NS(=O)(=O)CCO)cc2N2CCC3(CC2)CC3)c2cc3n(c12)CC(C)(C)OC3 [Example 531, 4-((2-hydroxyethyl)sulfonamido)-N-(6-isopropoxy-3,3-dimethyl-3,4-dihydro-1H-[1,4]oxazinyl[4,3-a]indol-9-yl)-2-(6-azaspiro[2.5]oct-6-yl)benzamide]	–
50 to 500 nM	50 to 500 nM	CCOc1ccc(NC(=O)c2ccc(NS(=O)(=O)CCO)cc2N2CCC(=C(F)F)CC2)c2cc3n(c12)CC(C)(C)OC3 [Example 536, 2-(4-(difluoromethylene)piperidin-1-yl)-N-(6-ethoxy-3,3-dimethyl-3,4-dihydro-1H-[1,4]oxazino[4,3-a]indol-9-yl)-4-((2-hydroxyethyl)sulfonamido)benzamide]	–
≤ 50 nM	50 to 500 nM	CC1(C)Cn2c(cc3c(NC(=O)c4ccc(NS(=O)(=O)CCO)cc4N4CCC5(CC4)CC5)ccc(OC(F)(F)F)c32)CO1 [Example 573]	–
50 to 500 nM	50 to 500 nM	CC1(C)Cn2c(cc3c(NC(=O)c4ccc(NS(=O)(=O)CCO)cc4N4CCC(=C(F)F)CC4)ccc(OC(F)(F)F)c32)CO1 [Example 574]	–
50 to 500 nM	≤ 50 nM	[2H]C([2H])([2H])Oc1ccc(NC(=O)c2ccc(NS(=O)(=O)CCO)cc2N2CCC3(CC2)CC3)c2cc3n(c12)CC(C)(C)OC3 [Example 575]	–
50 to 500 nM	≤ 50 nM	[2H]C([2H])([2H])Oc1ccc(NC(=O)c2ccc(NS(=O)(=O)CCO)cc2N2CCC(=C(F)F)CC2)c2cc3n(c12)CC(C)(C)OC3 [Example 576]	–
≤ 50 nM	50 to 500 nM	O=C(Nc1ccc(OC(F)(F)F)c2c1cc1n2CCC(F)(F)C1)c1ccc(NS(=O)(=O)CCO)cc1N1CCC2(CC1)CC2 [Example 582]	–

SMILES	IC50 (KIF18A)	IC50 (OVCAR-3 cells; Homo sapiens, OVCAR-3, 240 h)	IC50 (OVCAR-3 cells)
COc1ccc(NC(=O)c2ccc(NS(=O)(=O)CCO)cc2N2CCC3(CC2)CC3)c2cc3n(c12)CC(C)OC3C (stereo not shown) [Example 449]	50 to 500 nM	–	≤ 50 nM
Cc1cc(NC(=O)c2ccc(NS(=O)(=O)CCO)cc2N2CCC(=C(F)F)CC2)c2cc3n(c2c1)CC(C)(C)OC3 [Example 467, 2-(4-(difluoromethylene)piperidin-1-yl)-4-((2-hydroxyethyl)sulfonamide)-N-(3,3,7-trimethyl-3,4-dihydro-1H-[1,4]oxazino[4,3-a]indol-9-yl)benzamide]	50 to 500 nM	–	50 to 500 nM
COc1ccc(NC(=O)c2ccc(NS(=O)(=O)CCO)cc2N2CCC3(CC2)CC3)c2nc3n(c12)CC(C)(C)OC3 [Example 488]	50 to 500 nM	–	≤ 50 nM
CC1(C)Cn2c(cc3c(NC(=O)c4ccc(NS(=O)(=O)CCO)cc4N4CCC5(CC4)CC5)ccc(F)c32)CO1 [Example 519, N-(6-fluoro-3,3-dimethyl-3,4-dihydro-1H-[1,4]oxazinyl[4,3-a]indol-9-yl)-4-((2-hydroxyethyl)sulfanilamido)-2-(6-azaspiro[2.5]oct-6-yl)benzamide]	50 to 500 nM	–	50 to 500 nM
CC1(C)Cn2c(cc3c(NC(=O)c4ccc(NS(=O)(=O)CCO)cc4N4CCC5(CC4)CC5)ccc(Cl)c32)CO1 [Example 521, 2-(6-azaspiro[2.5]oct-6-yl)-N-(6-chloro-3,3-dimethyl-3,4-dihydro-1H-[1,4]oxazino[4,3-a]indol-9-yl)-4-{[(2-hydroxyethyl)sulfonamide]}benzamide]	50 to 500 nM	–	50 to 500 nM
Cc1ccc(NC(=O)c2ccc(NS(=O)(=O)CCO)cc2N2CCC3(CC2)CC3)c2cc3n(c12)CC(C)(C)OC3 [Example 525]	50 to 500 nM	–	≤ 50 nM
CC(C)Oc1ccc(NC(=O)c2ccc(NS(=O)(=O)CCO)cc2N2CCC(=C(F)F)CC2)c2cc3n(c12)CC(C)(C)OC3 [Example 532, 2-(4-(difluoromethylene)piperidin-1-yl)-4-((2-hydroxyethyl)sulfonamido)-N-(6-isopropoxy-3,3-dimethyl-3,4-dihydro-1H-[1,4]oxazinyl[4,3-a]indol-9-yl)benzamide]	50 to 500 nM	–	50 to 500 nM
COc1ccc(C(=O)Nc2ccc(NS(=O)(=O)CCO)cc2N2CCC3(CC2)CC3)c2cc3n(c12)CC(C)(C)OC3 [Example 565]	50 to 500 nM	–	≤ 50 nM
COc1ccc(C(=O)Nc2ccc(NS(=O)(=O)CCO)cc2N2CCC(=C(F)F)CC2)c2cc3n(c12)CC(C)(C)OC3 [Example 566]	≤ 50 nM	–	50 to 500 nM
